Assay results as given in patent publication US11191790B2, “Biologically pure Faecalibacterium butyricigenerans strain, composition including the same and method for treating ulcerative colitis” (BGI SHENZHEN, priority 2016, dated 2021).

System: UC modeled mice (DSS-induced ulcerative colitis)
Assay: In vivo experiment in DSS-induced UC modeled mice
Parameters: species or system C57bl/6 mice
Protocol: With administration of AF52-21, saline or a positive drug, the therapeutic effect of Faecalibacterium butyricigenerans AF52-21 on the UC modeled mice was evaluated by observing body weight, mortality, fecal traits, occult/visual blood in stool, colon length, disease and activity index (DAI) and pathological parameters.
8 week-old C57bl/6 mice weighted 21 g±1 g in SPF grade were adaptively fed for one week. Then, 2% sodium dextran sulfate (DSS) was administered to the mice for 7 days to induce the UC modeled mice.
A total of 48 mice were randomly divided into four groups, with 12 mice in each group. The groups were as follows:
Group I: control group—normal mice without DSS induction;
Group II: UC modeled group—saline gavage after DSS induction;
Group III: UC treatment group—AF52-21 treatment after DSS induction;
Group IV: UC treatment group—positive drug (salicylazosulfapyridine, SASP) treatment after DSS induction.
UC modeled group: gavage with saline (0.85% NaCl).
AF52-21-treated group: administration with cultured AF52-21 in a stationary phase in a bacterial concentration of about 10^8 cfu/ml.
SASP-treated group: administration with 0.02 g/mL of aqueous SASP solution.
The mice in all groups were daily observed for food intake, spontaneous activities, body weight, fecal traits and occult/visual blood in stool. After DSS induction for 7 days, mice were treated according to the administration scheme in 4.3 for 2 weeks by daily gavage of 200 μL/mouse. After 14 days, mice in all groups were sacrificed for blood collection, colon collection for photographing and length-measuring, and collection of other organs for weighing. The colon was then stored in paraformaldehyde in a […] refrigerator.
The mice were given individual scores according to body weight, fecal traits and occult/visual blood in stool. The scoring criteria are as follows (Table 4).
The DAI is scored as the sum of the scores for body weight, fecal traits and occult blood/visual blood in stool.

[1] = daily gavage 200 μL/mouse, AF52-21 about 10^8 cfu/ml, SASP 0.02 g/mL
[2] = ratio of organ weight to body weight, x ± SD, after 14 days of treatment
[3] = sum of scores for body weight, fecal traits, occult/visual blood in stool, daily gavage 200 μL/mouse

## O=C(O)c1cc(/N=N/c2ccc(S(=O)(=O)Nc3ccccn3)cc2)ccc1O [SASP, salicylazosulfapyridine]
12 mice in each group, 5 mice died in the UC modeled group
  Mice died during the entire experiment: 2 mice
UC modeled mice, after 7 days 2% DSS, before treatment
  Body weight, DSS induction at Day 7: 28.52 ± 3.12 g
UC modeled mice, before DSS induction and before treatment (baseline of the group)
  Body weight, DSS induction at Day 0: 30.12 ± 2.25 g
After 14 days of treatment, UC modeled group 6.11 ± 0.90
  colon length: 6.54 ± 0.71
[1]
  Body weight, Treatment at Day 1: 26.51 ± 3.31 g
  Body weight, Treatment at Day 7: 27.60 ± 3.46 g
  Body weight, Treatment at Day 14: 29.98 ± 3.32 g
Decrease rate of body weight, UC modeled group 8 ± 0.8% decrease
  Weight gain/decrease rate: 0.4 ± 0.2% (decrease rate)
Histological sections of mouse intestinal mucosa, FIG. 5, compared with the UC modeled group
  Colon histopathology: reduced thickness of colon wall; and reduced number of inflammatory cells infiltrating in submucosa
[2]
  Colon index: 9.88 ± 2.76 mg/g
  Kidney index: 13.24 ± 1.74 mg/g
  Liver index: 41.56 ± 6.04 mg/g
  Spleen index: 6.24 ± 3.71 mg/g
  Thymus index: 1.10 ± 0.39 mg/g
Sum of scores for body weight, fecal traits, occult/visual blood in stool, before treatment
  DAI score, DSS induction for 7 days: 7.70 ± 2.85
[3]
  DAI score, Treatment for 7 days: 5.89 ± 2.21
  DAI score, Treatment for 14 days: 3.98 ± 1.38
